Assay results: patent US6015560A, “Antibody recognizing endothelial cell ligand for leukocyte CR3” (priority 1995, dated 2000)

How the values were obtained:
[1] = system: neutrophils; assay: Inhibition of 125I-Factor X binding to neutrophils; design: species or system human
Experimental: Human Factor X (Sigma or Hematologic Technologies Inc.) was labeled with ^125 I using Iodogen (Pierce Chemical Co.) Human neutrophils were isolated from heparinized blood according to the manufacturer's specification using Neutrophil Isolation Medium (Cardinal Associates, Santa Fe, N.Mex.) and washed three times with 5 mM EDTA-phosphate-bufferedsaline (PBS), pH 7.2, at 4° C. To eliminate platelet contamination,neutrophils were incubated with autologous serum containing 5 mM EDTA for 30 mins. at 37° C., washed three times with ice-cold PBS, pH 7.2, and resuspended in RPMI 1640 tissue culture medium (Whittaker M. A. Bioproducts, Walkersville, Md.) at 4° C. Binding of ^125 I-Factor X to neutrophils was measured based on a method described by Altieri et al. (1991) Science 254: 1200-1202. Briefly, 200 μl of neutrophils (1.5×10^7 /ml) were supplemented with 17.5 μl of 50 mM CaCl2, stimulated with 3.5 μl of 100 μM NH2 -formyl-Met-Leu-Phe (Sigma), and mixed with 30 μl of 10.3 μg/ml ^125 I-Factor X and 100 μl of 1.75 mM of peptide. […] Aliquots of the supernatant (cell free ^125 I-Factor X) and the cell pellet (cell bound ^125 I-Factor X) were counted in a gamma-counter. Nonspecific binding (~50,000 cpm) was determined by adding a 100 fold excess of unlabeled Factor X, and subtracted from total radioactivity (~500,000 cpm for controls).

[2] = TLC plates containing ciliary extracts; cited from earlier work
[3] = system: neutrophils; assay: Transendothelial migration of neutrophils; assay type: cell-based, human; conditions: native FHA 1 μM
Experimental: Transendothelial migration of neutrophils was studied based on a method described by Muller et al. (1992), J. Exp. Med. 176: 819-828. Briefly, human neutrophils suspended in ice-cold Hanks balanced salt solution (HBSS) containing Ca^++ and Mg^++ (Sigma) were fluoresceinated by adding 3.3 μl/ml 5-(and 6-)carboxyfluorescein diacetate, succinimidyl ester (CFSE, Molecular Probes Inc., Oreg.). After incubation for 30 mins. on ice, neutrophils were washed twice in cold HBSS with Ca^++ and Mg^++ and resuspended in cold Medium 199 (M199, Sigma) to a final concentration of 10^6 /ml. Human umbilical vein endothelial cells were subcultured at confluence into 96-well tissue culture plates (Becton Dickinson Labware, Lincoln Park, N.J.) that were coated with hydrated collagen gel (Vitrogen; Collagen Corporation, Palo Alto, Calif.) and fibronectin. Endothelial cells were stimulated with 10 ng/ml TNF-alpha for 4 hours and washed three times with warm M199. Neutrophils (10^6 /ml) were preincubated with 0.01 mM of peptides or with 1 μM of native FHA in M199 for 5 mins. on ice before they were added in 100 μl aliquots to the endothelial cells. For positive control, neutrophils were pre-incubated with 25 μg/ml anti-CD18 mAb IB4. For negative control, neutrophils were treated with 25 μg/ml mAb W6/32 against HLA class I antigen (Dako, Carpinteria, Calif.). The cells were incubated for 1 hour at 37° C., 5% CO2. To terminate transmigration, the supernatant fluid was aspirated and the wells were filled with warm 1 mM EGTA (Sigma) in HBSS without Ca and Mg. The plates were covered with plate sealers (Dynatech, Alexandria, Va.) and centrifuged in an inverted position at 250 g for 3 mins. at room temperature. To remove residual non-transmigrated neutrophils from the endothelial cells, monolayers were washed twice with 200 μl of warm Hanks solution without Ca and Mg. Fluorescence was quantitated using a fluorescence counter (Millipore Cytofluor™ 2300). The percentage of transmigrated neutrophils was determined by comparing the amount of fluorescence of test wells with that measured in collagen- and fibronectin-coated wells without endothelial cells. […] Percent inhibition of transendothelial migration of neutrophils was calculated by comparing the number of transmigrated cells in wells containing neutrophils treated with peptide to neutrophils treated with M199 alone and arbitrarily set at 100% transendothelial migration (TEM).
The procedures for determining the neutrophil adherence to cultured endothelial cells and the transendothelial migration of neutrophils were identical with those of Example 9. Control values were the same as those shown in Example 9.

## filamentous hemagglutinin [native FHA]
[1]
  IC50: 100 nM
[1]; native FHA 0.3 μM
  inhibition of 125I-Factor X binding to neutrophils: 70±4%
[2]
  binding to lactosylceramide: binds to lactosylceramide
[3]
  % Inhibition of TEM: 82±1%
[3]; listed as FHA
  % Inhibition of TEM: 82 ± 1%
[3]; listed as Intact FHA
  % Inhibition of TEM: 82±1%
